Reference: US5015661A, “Chromanes and their pharmaceutical compositions and methods” (Hoffmann-La Roche Inc., priority 1989, dated 1991)

molecular target: T1, Δ^5 -lipoxygenase from rat basophilic leukemia (RBL-1) cells (Rattus norvegicus, UniProt P12527); assay: In vitro test for Δ^5 -lipoxygenase inhibitors (5-LO), RBL-1 cell enzyme, 5-HETE radioimmunoassay; type: biochemical; conditions: RBL-1 5-LO; 10 min preincubation; 8.25 μM arachidonic acid, 10 min at 37° C.; 5-HETE formation; read-out: 5-LO IC-50
T1 construct: endogenous in cells; host or cells: RBL-1 rat basophilic leukemia cells (ATCC CRL 1378); 113,000×g supernatant (cytosolic fraction)
T1 sequence (P12527 1-673): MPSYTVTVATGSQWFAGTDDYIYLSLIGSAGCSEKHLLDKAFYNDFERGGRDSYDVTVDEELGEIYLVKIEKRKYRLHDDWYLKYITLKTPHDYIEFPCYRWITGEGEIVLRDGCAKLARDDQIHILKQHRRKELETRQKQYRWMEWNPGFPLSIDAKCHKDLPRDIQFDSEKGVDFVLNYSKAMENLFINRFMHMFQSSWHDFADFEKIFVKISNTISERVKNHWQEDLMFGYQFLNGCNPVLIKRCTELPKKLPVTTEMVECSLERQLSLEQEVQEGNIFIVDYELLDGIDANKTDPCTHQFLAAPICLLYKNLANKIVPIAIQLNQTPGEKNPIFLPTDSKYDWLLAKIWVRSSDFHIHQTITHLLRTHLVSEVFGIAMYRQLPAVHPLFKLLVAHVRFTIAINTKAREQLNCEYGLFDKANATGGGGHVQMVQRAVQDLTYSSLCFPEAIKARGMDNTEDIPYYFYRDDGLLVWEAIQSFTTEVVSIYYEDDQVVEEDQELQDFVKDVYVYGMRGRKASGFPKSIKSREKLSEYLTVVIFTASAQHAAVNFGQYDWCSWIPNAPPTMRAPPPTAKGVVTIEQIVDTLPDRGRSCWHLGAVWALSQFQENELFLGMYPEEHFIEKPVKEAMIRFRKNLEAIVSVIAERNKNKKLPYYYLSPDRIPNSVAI
How it was run: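 Cytosolic (113,000×g supernatant) 5-LO from RBL-1 cells was preincubated with compound 10 min at 30° C, then reacted 10 min at 37° C with 8.25 μM arachidonic acid in Tris-HCl pH 7.2 with glutathione, indomethacin, CaCl2 and ATP. The reaction was stopped with citric acid (pH 3.5), and 5-HETE formed was quantified by radioimmunoassay.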

Row | Compound | IC50
1 | Cc1c(C)c2c(c(C)c1O)CCC(C)(C#Cc1ccccc1O)O2 (racemic) [Example 50 (2-HO-phenyl), rac-3,4-Dihydro-2-[(2-hydroxyphenyl)ethynyl]-2,5,7,8-tetramethyl-2H-1-benzopyran-6-ol] | 6 nM
2 | Cc1c(C)c2c(c(C)c1O)CCC(C)(c1cc3ccccc3o1)O2 (racemic) [Example 50 (CH; H, H, H), rac-2-(2-Benzofuranyl)-3,4-dihydro-2,5,7,8-tetramethyl-2H-1-benzopyran-6-ol] | 12 nM
3 | Cc1ccc2oc(C3(C)CCc4c(C)c(O)c(C)c(C)c4O3)cc2n1 (racemic) [Example 51, rac-3,4-Dihydro-2-(5-methylfuro[3,2[b]pyridin-2-yl)-2,5,7,8-tetramethyl-2H-1-benzopyran-6ol] | 3 nM
4 | Cc1c(C)c2c(c(C)c1O)CCC(C)(c1cc3ncccc3o1)O2 (racemic) [Example 52, rac-3,4-Dihydro-2-(furo[3,2-b]pyridine-2-yl)-2,5,7,8-tetramethyl-2H-1-benzopyran-6-ol] | 18 nM
5 | CCCc1c(O)c(C(C)=O)cc2cc(C3(C)CCc4c(C)c(O)c(C)c(C)c4O3)oc12 (racemic) [Example 53, rac-1-2-(3,4-Dihydro-6-hydroxy-2,5,7,8-tetramethyl-2H-1-benzopyran-2-yl)-6-hydroxy-7-propylbenzofuran-5-yl]ethanone] | 17 nM
6 | COc1cc(CO)cc2cc(C3(C)CCc4c(C)c(O)c(C)c(C)c4O3)oc12 (racemic) [Example 55, rac-2-(3,4-Dihydro-6-hydroxy-2,5,7,8-tetramethyl-2H-1-benzopyran-2-yl)-7-methoxybenzofuran-5-methanol] | 3 nM
7 | Cc1c(C)c2c(c(C)c1O)CCC(C)(CCc1cccs1)O2 (racemic) [Example 57, rac-3,4-Dihydro-2,5,7,8-tetramethyl-2-[2-(2-thienyl)ethyl]-2H-1-benzo-pyran-6-ol] | 50 nM
8 | Cc1c(C)c2c(c(C)c1O)CCC(C)(CCc1ccccn1)O2 (racemic) [Example 58, rac-3,4-Dihydro-2,5,7,8-tetramethyl-2-[2-(2-pyridinyl)ethyl]-2H-1-benzopyran-6-ol] | 60 nM
9 | Cc1c(C)c2c(c(C)c1O)CCC(C)(CCc1cccnc1)O2 (racemic) [Example 59, rac-3,4-Dihydro-2,5,7,8-tetramethyl-2-[2-(3-pyridinyl)ethyl]-2H-1-benzopyran-6-ol] | 30 nM
10 | COc1ccc(CCC2(C)CCc3c(C)c(O)c(C)c(C)c3O2)cc1OC(C)=O (racemic) [Example 60, rac-2-{2-[3-(Acetyloxy)-4-methoxyphenyl]ethyl}-3,4-dihydro-2,5,7,8-tetramethyl-2H-1-benzopyran-6ol] | 56 nM
11 | Cc1c(C)c2c(c(C)c1O)CCC(C)(CCc1ccc(O)c(O)c1)O2 (racemic) [Example 61, rac-4-[2-(3,4-Dihydro-6-hydroxy-2,5,7,8-tetramethyl-2H-1-benzopyran-2-yl)ethyl]-1,2-benzenediol] | 15 nM
12 | COc1cccc(CCC2(C)CCc3c(C)c(O)c(C)c(C)c3O2)c1 (racemic) [Example 62, rac-3,4-Dihydro-2-[2-(3-methoxyphenyl)ethyl]-2,5,7,8-tetramethyl-2H-1-benzopyran-6-ol] | 120 nM
13 | COC(=O)c1cc(CCC2(C)CCc3c(C)c(O)c(C)c(C)c3O2)ccc1O (racemic) [Example 63, rac-5-[2-(3,4-Dihydro-6-hydroxy-2,5,7,8-tetramethyl-2H-1-benzopyran-2-yl)ethyl]-2-hydroxybenzoic acid methyl ester] | 80 nM
14 | Cc1c(C)c2c(c(C)c1O)CCC(C)(CCc1ccc(-c3cccnc3)cc1)O2 (racemic) [Example 64, rac-3,4-Dihydro-2,5,7,8-tetramethyl-2-{2-[4-(3-pyridinyl)-phenyl]ethyl}-2H-1-benzopyran-6-ol] | 46 nM
15 | Cc1c(C)c2c(c(C)c1O)CCC(C)(CCc1ccc(-c3ccccn3)s1)O2 (racemic) [Example 65, rac-3,4-Dihydro-2,5,7,8-tetramethyl-2-{2-[5-(2-pyridinyl)-2-thienyl]ethyl}-2H-1-benzopyran-6ol] | 170 nM
16 | CCCCc1ccc(CCC2(C)CCc3c(C)c(O)c(C)c(C)c3O2)s1 (racemic) [Example 66, rac-2-[2-(5-Butyl-2-thienyl)ethyl]-3,4-dihydro-2,5,7,8-tetramethyl-2H-1-benzopyran-6-ol] | 140 nM
17 | Cc1c(C)c2c(c(C)c1O)CC[C@](C)(C#Cc1cccs1)O2 [Example 5, (R)-3,4-Dihydro-2,5,7,8-tetramethyl-2-[(2-thienyl)ethynyl]-2H-1-benzopvran-6-ol] | 15 nM
18 | Cc1c(C)c2c(c(C)c1O)CC[C@@](C)(C#Cc1cccs1)O2 [Example 13, (S)-3,4-Dihydro-2,5,7,8-tetramethyl-2-[(2-thienyl)ethynyl]-2H-1-benzopyran-6-ol] | 17 nM
19 | Cc1c(C)c2c(c(C)c1O)CCC(C)(C#Cc1ccc3c(c1)N(C)C(=O)CO3)O2 (stereo not shown) [Example 48] | 32 nM
